Publication PMC9189214 (Poultry Science, 2022)

Tests used:
[1] = Cell viability used to select the allicin concentration; type: cell-based; conditions: dog, MDCK-chAbcb1 or MDCK-chAbcg2 cells
[2] = Pharmacokinetic analyses of sulfadiazine and florfenicol in broilers; type: in vivo; conditions: florfenicol 20 mg/kg oral, 4-wk broilers
[3] = system: chicken BCRP; assay: Bidirectional transport experiment in MDCK-chAbcg2 cells; type: in vitro ADME; conditions: net efflux ratio (NER), florfenicol 20 μM, without allicin

| CLz ([2]; Allicin (32 mg/kg) for 4 wk) [mL/min/kg] | Vz ([2]; Allicin (32 mg/kg) for 4 wk) [L/kg] | CLz ([2]; Control (no allicin)) [mL/min/kg] | Vz ([2]; Control (no allicin)) [L/kg] | efflux ratio at 20 μM [3] | Structure (SMILES) | viability at 5 μM [1] [%] |
| --- | --- | --- | --- | --- | --- | --- |
|  |  |  |  |  | C=CCS[S+]([O-])CC=C (stereo not drawn) [allicin, Allicin] | > 90 |
| 18.8 ± 8 | 7.61 ± 2.89 | 25.2 ± 8.17 | 8.57 ± 3.90 | > 2 | CS(=O)(=O)c1ccc([C@@H](O)[C@@H](CF)NC(=O)C(Cl)Cl)cc1 [florfenicol] |  |
